Test results reported in patent publication US7157083B2, “Compositions and methods for treating retroviral infections” (priority 1998, dated 2007).
Read-outs that look alike come from different tables or passages of the source.

Experiments:
ROJO (low passage HIV-1) = assay: Study 2 hyaluronidase chronic overlay testing: RT activity after secondary ROJO infection; type: cell-based
Description: Percent virus control (% VC) in the following tables is the mean RT activity (cpm) as a percentage of a virus control. Percent cell control (% CC) is the mean XTT absorbance as a percentage of a cell control.
Method A. Peripheral blood monocytes were isolated from normal HIV-1 negative donors by plastic adherence following ficall hypaque purification of the buffy coat PBMCs. For isolation of adherent cells, 3×10^6/ml non-PHA stimulated peripheral blood cells were resuspended in Hanks buffered saline (with calcium and magnesium) supplemented with 10% human AB serum, and 200 μl per well placed in a 96 well lat bottomed microtiter plate. The cells were incubated overnight at 37° C., 5% CO2. Non-adherent cells were removed by washing six time with a Ca^++, Mg^++ containing medium. The adherent cells after the final wash were supplemented with RPMI 1640 supplemented with 15% fetal bovine serum (heat inactivated), 2 mM L-glutamine, 100 U/mL penicillin, 100 μg/mL streptomycin and 10 μg/mL gentamycin, and cultured for 7 days. The cultures were washed one final time before addition of compounds to remove any non-adherent cells. The cultures are carefully monitored for confluency prior to assay.
Reverse transcriptase (RT) activity was measured in cell-free supernatants. Tritiated thymidine triphosphate (NEN) (TTP) was resuspended in distilled H2O at […]. Poly rA and oligo dT were prepared as a stock solution which was kept at −20° C. The RT reaction buffer was prepared fresh on a daily basis and consists of 125 μL 1.0 M EGTA, 125 μL d H2O, 110 μL 10% SDS, 50 μL 1.0 M Tris (pH 7.4), 50 μL 1.0 M DTT, and 40μ1.0 M MgCl2. These three solutions were mixed together in a ratio of 2 parts TTP, 1 part poly rA:oligo dT, and 1 part reaction buffer. Ten microliters of this reaction mixture was placed in a round bottom microtiter plate and 15 μL of virus containing supernatant was added and mixed. The plate was incubated at 37° C. in a water bath with a solid support to prevent submersion of the plate and incubated for 60 minutes. Following reaction, the reaction volume was spotted onto pieces of DE81 paper, washed 5 times for 5 minutes each in a 5% sodium phosphate buffer, 2 times for 1 minute each in distilled water, 2 times for 1 minute each in 70% ethanol, and then dried. Opti-Fluor O was added to each sample and incorporated radioactivity was quantitated utilizing a Wallace 1450 Microbetaplus liquid scintillation counter.
Assay method. Seven day old Rojo chronically infected (and uninfected control) PBMCs are pre-treated with two fold dilutions of HLDA-1 for 48 hours. Treated cells are 2× washed with PBS and overlayed onto seven day old macrophages for 72 hours at which time the PBMCs were washed off and replaced with fresh uninfected pha blast PBMCs in the presence of IL-1 (5.0 ng/mL) and IL-2 (20U/mL). Overlayed cells are incubated for 48 hours 50% of cells transferred to a fresh 96 well plate, and then both the original and transfer plate infected with ROJO at a standard MOI. Samples for reverse transcriptase and toxicity testing were processed on day 7 post secondary infection.

HIV-1 [1] = conditions: Assay #5
Description: (§1) Reverse transcriptase (RT) activity was measured in cell-free supernatants. Tritiated thymidine triphosphate (NEN) (TTP) was resuspended in distilled H2O at 5 Cl/mL. Poly rA and oligo dT were prepared as a stock solution which was kept at −20° C. The RT reaction buffer was prepared fresh on a daily basis and consists of 125 μL 1.0 M EGTA, 125 μL d H2O, 110 μL 10% SDS, 50 μL 1.0 M Tris (pH 7.4), 50 μL 1.0 M DTT, and 40μ1.0 M MgCl2. These three solutions were mixed together in a ratio of 2 parts TTP, 1 part poly rA:oligo dT, and 1 part reaction buffer. Ten microliters of this reaction mixture was placed in a round bottom microtiter plate and 15 μL of virus containing supernatant was added and mixed. The plate was incubated at 37° C. in a water bath with a solid support to prevent submersion of the plate and incubated for 60 minutes. Following reaction, the reaction volume was spotted onto pieces of DE81 paper, washed 5 times for 5 minutes each in a 5% sodium phosphate buffer, 2 times for 1 minute each in distilled water, 2 times for 1 minute each in 70% ethanol, and then dried. Opti-Fluor O was added to each sample and incorporated radioactivity was quantitated utilizing a Wallace 1450 Microbetaplus liquid scintillation counter.
(§2) Control groups were not treated with the enzyme.

HIV-1 [2] = conditions: Assay #6
Description: as §1, §2

HIV-1 [3] = conditions: Assay #8
Description: as §1, §2

Substance: Hyaluronidase
- RT activity % VC (ROJO (low passage HIV-1); Table 4, 2.5 units/mL, Rojo chronic PBMCs, Macrophage + PBMCs): 207.4%
- RT activity % VC (ROJO (low passage HIV-1); Table 4, 2.5 units/mL, Rojo chronic PBMCs, Transfer PBMCs): 183.0%
- RT activity % VC (ROJO (low passage HIV-1); Table 4, 2.5 units/mL, control uninfected PBMCs, Macrophage + PBMCs): 102.3%
- RT activity % VC (ROJO (low passage HIV-1); Table 4, 2.5 units/mL, control uninfected PBMCs, Transfer PBMCs): 47.3%
- RT activity % VC (ROJO (low passage HIV-1); Table 4, 3.75 units/mL, Rojo chronic PBMCs, Macrophage + PBMCs): 124.1%
- RT activity % VC (ROJO (low passage HIV-1); Table 4, 3.75 units/mL, Rojo chronic PBMCs, Transfer PBMCs): 126.5%
- RT activity % VC (ROJO (low passage HIV-1); Table 4, 3.75 units/mL, control uninfected PBMCs, Macrophage + PBMCs): 111.5%
- RT activity % VC (ROJO (low passage HIV-1); Table 4, 3.75 units/mL, control uninfected PBMCs, Transfer PBMCs): 34.4%
- RT activity % VC (ROJO (low passage HIV-1); Table 4, 5 units/mL, Rojo chronic PBMCs, Macrophage + PBMCs): 22.2%
- RT activity % VC (ROJO (low passage HIV-1); Table 4, 5 units/mL, Rojo chronic PBMCs, Transfer PBMCs): 24.2%
- RT activity % VC (ROJO (low passage HIV-1); Table 4, 5 units/mL, control uninfected PBMCs, Macrophage + PBMCs): 71.1%
- RT activity % VC (ROJO (low passage HIV-1); Table 4, 5 units/mL, control uninfected PBMCs, Transfer PBMCs): 18.0%
- RT activity % VC (ROJO (low passage HIV-1); Table 4, 7.5 units/mL, Rojo chronic PBMCs, Macrophage + PBMCs): 12.7%
- RT activity % VC (ROJO (low passage HIV-1); Table 4, 7.5 units/mL, Rojo chronic PBMCs, Transfer PBMCs): 21.9%
- RT activity % VC (ROJO (low passage HIV-1); Table 4, 7.5 units/mL, control uninfected PBMCs, Macrophage + PBMCs): 56.4%
- RT activity % VC (ROJO (low passage HIV-1); Table 4, 7.5 units/mL, control uninfected PBMCs, Transfer PBMCs): 26.8%
- RT activity % VC (ROJO (low passage HIV-1); Table 4, 10 units/mL, Rojo chronic PBMCs, Macrophage + PBMCs): 14.8%
- RT activity % VC (ROJO (low passage HIV-1); Table 4, 10 units/mL, Rojo chronic PBMCs, Transfer PBMCs): 21.5%
- RT activity % VC (ROJO (low passage HIV-1); Table 4, 10 units/mL, control uninfected PBMCs, Macrophage + PBMCs): 56.2%
- RT activity % VC (ROJO (low passage HIV-1); Table 4, 10 units/mL, control uninfected PBMCs, Transfer PBMCs): 21.2%
- RT activity % VC (ROJO (low passage HIV-1); Table 4, 15 units/mL, Rojo chronic PBMCs, Macrophage + PBMCs): 13.3%
- RT activity % VC (ROJO (low passage HIV-1); Table 4, 15 units/mL, Rojo chronic PBMCs, Transfer PBMCs): 21.9%
- RT activity % VC (ROJO (low passage HIV-1); Table 4, 15 units/mL, control uninfected PBMCs, Macrophage + PBMCs): 40.2%
- RT activity % VC (ROJO (low passage HIV-1); Table 4, 15 units/mL, control uninfected PBMCs, Transfer PBMCs): 20.6%
- RT activity % VC (ROJO (low passage HIV-1); Table 4, 20 units/mL, Rojo chronic PBMCs, Macrophage + PBMCs): 14.2%
- RT activity % VC (ROJO (low passage HIV-1); Table 4, 20 units/mL, Rojo chronic PBMCs, Transfer PBMCs): 13.6%
- RT activity % VC (ROJO (low passage HIV-1); Table 4, 20 units/mL, control uninfected PBMCs, Macrophage + PBMCs): 41.9%
- RT activity % VC (ROJO (low passage HIV-1); Table 4, 20 units/mL, control uninfected PBMCs, Transfer PBMCs): 33.0%
- RT activity % VC (ROJO (low passage HIV-1); Table 4, 30 units/mL, Rojo chronic PBMCs, Macrophage + PBMCs): 19.9%
- RT activity % VC (ROJO (low passage HIV-1); Table 4, 30 units/mL, Rojo chronic PBMCs, Transfer PBMCs): 18.0%
- RT activity % VC (ROJO (low passage HIV-1); Table 4, 30 units/mL, control uninfected PBMCs, Macrophage + PBMCs): 43.8%
- RT activity % VC (ROJO (low passage HIV-1); Table 4, 30 units/mL, control uninfected PBMCs, Transfer PBMCs): 24.0%
- RT activity % VC (ROJO (low passage HIV-1); Table 5, 2.5 units/mL, Rojo chronic PBMCs, Macrophage + PBMCs): 164.0%
- RT activity % VC (ROJO (low passage HIV-1); Table 5, 2.5 units/mL, Rojo chronic PBMCs, Transfer PBMCs): 106.0%
- RT activity % VC (ROJO (low passage HIV-1); Table 5, 2.5 units/mL, control uninfected PBMCs, Transfer PBMCs): 136.0%
- RT activity % VC (ROJO (low passage HIV-1); Table 5, 3.75 units/mL, Rojo chronic PBMCs, Macrophage + PBMCs): 191.7%
- RT activity % VC (ROJO (low passage HIV-1); Table 5, 3.75 units/mL, Rojo chronic PBMCs, Transfer PBMCs): 152.4%
- RT activity % VC (ROJO (low passage HIV-1); Table 5, 3.75 units/mL, control uninfected PBMCs, Macrophage + PBMCs): 108.5%
- RT activity % VC (ROJO (low passage HIV-1); Table 5, 3.75 units/mL, control uninfected PBMCs, Transfer PBMCs): 195.0%
- RT activity % VC (ROJO (low passage HIV-1); Table 5, 5 units/mL, Rojo chronic PBMCs, Macrophage + PBMCs): 253.5%
- RT activity % VC (ROJO (low passage HIV-1); Table 5, 5 units/mL, control uninfected PBMCs, Macrophage + PBMCs): 184.7%
- RT activity % VC (ROJO (low passage HIV-1); Table 5, 5 units/mL, control uninfected PBMCs, Transfer PBMCs): 380.0%
- RT activity % VC (ROJO (low passage HIV-1); Table 5, 7.5 units/mL, Rojo chronic PBMCs, Macrophage + PBMCs): 476.0%
- RT activity % VC (ROJO (low passage HIV-1); Table 5, 7.5 units/mL, Rojo chronic PBMCs, Transfer PBMCs): 792.6%
- RT activity % VC (ROJO (low passage HIV-1); Table 5, 10 units/mL, Rojo chronic PBMCs, Transfer PBMCs): 730.4%
- RT activity % VC (ROJO (low passage HIV-1); Table 5, 10 units/mL, control uninfected PBMCs, Macrophage + PBMCs): 965.0%
- RT activity % VC (ROJO (low passage HIV-1); Table 5, 20 units/mL, Rojo chronic PBMCs, Macrophage + PBMCs): 375.9%
- RT activity % VC (ROJO (low passage HIV-1); Table 5, 20 units/mL, Rojo chronic PBMCs, Transfer PBMCs): 284.2%
- RT activity % VC (ROJO (low passage HIV-1); Table 5, 20 units/mL, control uninfected PBMCs, Macrophage + PBMCs): 196.8%
- RT activity % VC (ROJO (low passage HIV-1); Table 5, 20 units/mL, control uninfected PBMCs, Transfer PBMCs): 383.0%
- RT activity % VC (ROJO (low passage HIV-1); Table 5, 30 units/mL, Rojo chronic PBMCs, Macrophage + PBMCs): 291.8%
- RT activity % VC (ROJO (low passage HIV-1); Table 5, 30 units/mL, Rojo chronic PBMCs, Transfer PBMCs): 222.3%
- RT activity % VC (ROJO (low passage HIV-1); Table 5, 30 units/mL, control uninfected PBMCs, Macrophage + PBMCs): 163.1%
- RT activity % VC (ROJO (low passage HIV-1); Table 5, 30 units/mL, control uninfected PBMCs, Transfer PBMCs): 142.7%
- % Control (HIV-1 [1]; 5 mg/mL): 65.1%
- Mean RT (HIV-1 [1]; 5 mg/mL): 12442.7 cpm
- % Control (HIV-1 [1]; 10 mg/mL): 58.3%
- Mean RT (HIV-1 [1]; 10 mg/mL): 11156.3 cpm
- % Control (HIV-1 [1]; 20 mg/mL): 18.5%
- % Control, Sum (HIV-1 [1]; Sum over 20, 10, 5 mg/mL): 141.9%
- Mean RT, Sum (HIV-1 [1]; Sum over 20, 10, 5 mg/mL): 23599 cpm
- % Control (HIV-1 [2]; 5 mg/mL): 54.1%
- Mean RT (HIV-1 [2]; 5 mg/mL): 12279.7 cpm
- % Control (HIV-1 [2]; 10 mg/mL): 49.6%
- Mean RT (HIV-1 [2]; 10 mg/mL): 11244.7 cpm
- % Control (HIV-1 [2]; 20 mg/mL): 19.5%
- Mean RT (HIV-1 [2]; 20 mg/mL): 4430.7 cpm
- % Control, Sum (HIV-1 [2]; Sum over 20, 10, 5 mg/mL): 123.2%
- Mean RT, Sum (HIV-1 [2]; Sum over 20, 10, 5 mg/mL): 27955.1 cpm
- % Control (HIV-1 [3]; 5 mg/mL): 171.3%
- Mean RT (HIV-1 [3]; 5 mg/mL): 30167.3 cpm
- % Control (HIV-1 [3]; 10 mg/mL): 63.8%
- Mean RT (HIV-1 [3]; 10 mg/mL): 11241 cpm
- % Control (HIV-1 [3]; 20 mg/mL): 51.2%
- Mean RT (HIV-1 [3]; 20 mg/mL): 9014.3 cpm
- % Control, Sum (HIV-1 [3]; Sum over 20, 10, 5 mg/mL): 286.3%
- Mean RT, Sum (HIV-1 [3]; Sum over 20, 10, 5 mg/mL): 50422.6 cpm
